Patent US20250382549A1, “MULTIFUNCTIONAL N-OXIDE HYDROTROPES, CLEANING FORMULATIONS CONTAINING THEM AND USE THEREOF” (NOURYON CHEMICALS INTERNATIONAL B.V., priority 2022, published 2025)

Experiment: Degreasing effect on a soiled white painted metal plate (non-mechanical cleaning)
Conditions: 1:40 dilution in water, poured over painted metal plate soiled with train engine grease, rinsed with tap water
Procedure: The degreasing effect of the test formulations was assessed on a white painted metal plate soiled uniformly with a tough-to-clean greasy soil collected from a train engine. The cleaning formulation (1:40 dilution in water) was applied simply by pouring it over the surface (non-mechanical cleaning). After a short time interval, the whole plate was rinsed with tap water and cleaning performance was assessed quantitatively. The results are tabulated below and depicted in FIG. 1A (for the respective cleaning formulations A, B, and C containing no NaOH) and FIG. 1B. (for the respective cleaning formulations D, E, and F containing 2% NaOH).

**Q.** With “C12/14 alkyl methylamine ethoxylate N-Oxide” as the substance, how does the “Cleaning Performance” value read?
**A.** performs as well as the comparison hydrotrope
